Reference: patent US20070167502A1, “Association between a heterocyclic compound and an antioxidant agent” (priority 2004, published 2007)

System: Male C57 Black 6 ob/ob mice
Assay: Change in body weight of ob/ob mice after 7 days of treatment
Format: in vivo
Conditions: intraperitoneal route once a day for 7 days, weight after 7 days of treatment
Procedure: Male C57 Black 6 ob/ob mice from 8 to 12 weeks old were used. […] After being weighed, the various compounds under test were injected by the intraperitoneal route once a day for 7 days. The compounds were injected in a solution of DMSO 5%/Solutol 15%/qsp H2O heated at 65° C. to ensure good dissolution. In addition, the solution was pre-heated before injection. The mice were weighed every day and the weight obtained after 7 days of treatment was recorded.

Row | SMILES | reduction in the weight gain
1 | CCOC(Cc1ccc(OCCn2c(=O)sc3cc(C(=NO)c4ccccc4)ccc32)cc1)C(=O)O (centres unmarked) [2-ethoxy-3-{4-[2-(6-[(hydroxyimino)(phenyl)methyl]-2-oxo-1,3-benzothiazol-3(2H)-yl)ethoxy]phenyl}propanoic acid] | 10%
2 | COC1=C(OC)C(=O)C(C/C=C(\C)CC/C=C(\C)CC/C=C(\C)CC/C=C(\C)CC/C=C(\C)CC/C=C(\C)CC/C=C(\C)CC/C=C(\C)CC/C=C(\C)CCC=C(C)C)=C(C)C1=O [coenzyme Q10] | does not reduce the weight gain
